Assay results reported in PMC6934184, “Selective DNA-PKcs inhibition extends the therapeutic index of localized radiotherapy and chemotherapy” (The Journal of Clinical Investigation, 2019).

Biological target: T1, BLK (Homo sapiens, UniProt P51451)
T1 construct: purchased Thermo Fisher Scientific (Life Technologies) SelectScreen
Assay: SelectScreen Z'LYTE
Type: biochemical
Method in brief: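 NU5455 was profiled across the SelectScreen Broad panel of kinase activity and binding assays. Z'LYTE reactions such as CSF1R ran at apparent Km ATP, while the Adapta CAMK1 assay used ATP listed as 10. Values are given as percent.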

T1 sequence (P51451 whole entry): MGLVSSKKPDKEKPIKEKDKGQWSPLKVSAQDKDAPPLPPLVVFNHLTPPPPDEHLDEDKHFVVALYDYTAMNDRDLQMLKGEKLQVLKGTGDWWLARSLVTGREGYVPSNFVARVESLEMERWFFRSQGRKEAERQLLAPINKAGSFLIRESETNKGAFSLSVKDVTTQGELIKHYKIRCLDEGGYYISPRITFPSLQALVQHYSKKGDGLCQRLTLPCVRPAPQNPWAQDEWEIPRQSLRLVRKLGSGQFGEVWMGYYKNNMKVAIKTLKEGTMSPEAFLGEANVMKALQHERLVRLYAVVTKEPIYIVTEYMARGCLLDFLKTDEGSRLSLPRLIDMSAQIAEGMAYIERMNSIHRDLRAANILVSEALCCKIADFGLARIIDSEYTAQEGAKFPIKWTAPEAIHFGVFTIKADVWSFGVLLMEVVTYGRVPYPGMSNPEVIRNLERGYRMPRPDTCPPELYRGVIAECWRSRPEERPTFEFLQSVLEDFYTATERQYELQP

Question: `CN(C(=O)CN1CCOCC1)c1ccc2sc3c(-c4cccc5c(=O)cc(N6CC7CCC(C6)O7)oc45)cccc3c2c1` [NU5455] was tested. Which inhibition at 1 µM did it give?
Answer: -8.9%
